Data published in ChEMBL document CHEMBL1821675, “The selective P-TEFb inhibitor CAN508 targets angiogenesis” (Eur J Med Chem, 2011).
The source made the active and inactive calls. The rule behind the calls is not given here.

Experiments:
[1] = molecular target: Dual specificity mitogen-activated protein kinase kinase 1 (Homo sapiens) (UniProt Q02750); assay: Inhibition of MKK1 assessed as residual activity at 10 uM by radioactivity assay in presence of 5 uM ATP
UO-31 = assay: Cytotoxicity against human UO31 cells; assay type: functional
SF-539 = assay: Cytotoxicity against human SF539 cells; assay type: functional
[2] = molecular target: Ephrin type-B receptor 3 (Homo sapiens) (UniProt P54753); assay: Inhibition of EPH-B3 assessed as residual activity at 10 uM by radioactivity assay in presence of 20 uM ATP
[3] = molecular target: Eukaryotic elongation factor 2 kinase (Homo sapiens) (UniProt O00418); assay: Inhibition of EF2K assessed as residual activity at 10 uM by radioactivity assay in presence of 5 uM ATP
[4] = molecular target: Ephrin type-A receptor 4 (Homo sapiens) (UniProt P54764); assay: Inhibition of EPHA4 assessed as residual activity at 10 uM by radioactivity assay in presence of 50 uM ATP
[5] = Inhibition of VEGFR assessed as residual activity at 10 uM by radioactivity assay in presence of 20 uM ATP
CCRF-CEM = assay: Cytotoxicity against human CCRF-CEM cells; assay type: functional
[6] = molecular target: Mitogen-activated protein kinase kinase kinase 9 (Homo sapiens) (UniProt P80192); assay: Inhibition of MLK1 assessed as residual activity at 10 uM by radioactivity assay in presence of 20 uM ATP
[7] = molecular target: Serine/threonine-protein kinase PAK 4 (Homo sapiens) (UniProt O96013); assay: Inhibition of PAK4 assessed as residual activity at 10 uM by radioactivity assay in presence of 5 uM ATP
[8] = molecular target: Tyrosine-protein kinase SYK (Homo sapiens) (UniProt P43405); assay: Inhibition of SYK assessed as residual activity at 10 uM by radioactivity assay in presence of 20 uM ATP
[9] = molecular target: Ephrin type-B receptor 4 (Homo sapiens) (UniProt P54760); assay: Inhibition of EPH-B4 assessed as residual activity at 10 uM by radioactivity assay in presence of 50 uM ATP
[10] = Inhibition of PKA assessed as residual activity at 10 uM by radioactivity assay in presence of 20 uM ATP
[11] = molecular target: Serine/threonine-protein kinase pim-1 (Homo sapiens) (UniProt P11309); assay: Inhibition of PIM1 assessed as residual activity at 10 uM by radioactivity assay in presence of 20 uM ATP
HUVEC = assay: Antiproliferative activity against HUVEC cells assessed as decrease in cell viability at 10 to 40 uM within 72 hrs by calcein AM staining-based fluorescence assay; conditions: human
[12] = molecular target: Protein kinase C zeta type (Homo sapiens) (UniProt Q05513); assay: Inhibition of PKCzeta assessed as residual activity at 10 uM by radioactivity assay in presence of 5 uM ATP
UACC-257 = assay: Cytotoxicity against human UACC257 cells; assay type: functional
MDA-MB-435 = assay: Cytotoxicity against human MDA-MB-435 cells; assay type: functional
[13] = molecular target: Serine/threonine-protein kinase Chk1 (Homo sapiens) (UniProt O14757); assay: Inhibition of CHK1 assessed as residual activity at 10 uM by radioactivity assay in presence of 20 uM ATP
[14] = molecular target: High affinity nerve growth factor receptor (Homo sapiens) (UniProt P04629); assay: Inhibition of TrkA assessed as residual activity at 10 uM by radioactivity assay in presence of 20 uM ATP
HCT-15 = assay: Cytotoxicity against human HCT15 cells; assay type: functional
[15] = molecular target: Ribosomal protein S6 kinase alpha-1 (Homo sapiens) (UniProt Q15418); assay: Inhibition of RSK1 assessed as residual activity at 10 uM by radioactivity assay in presence of 50 uM ATP
NCI-H460 = assay: Cytotoxicity against human NCI-H460 cells; assay type: functional
MCF7 = assay: Decrease in VEGF expression in human MCF7 cells at >10 uM after 24 hrs by sandwich ELISA; assay type: functional, cell-based
[16] = molecular target: Inhibitor of nuclear factor kappa-B kinase subunit beta (Homo sapiens) (UniProt O14920); assay: Inhibition of IKK-beta assessed as residual activity at 10 uM by radioactivity assay in presence of 5 uM ATP
SF-268 = assay: Cytotoxicity against human SF268 cells; assay type: functional
[17] = molecular target: Serine/threonine-protein kinase MARK1 (Homo sapiens) (UniProt Q9P0L2); assay: Inhibition of MARK1 assessed as residual activity at 10 uM by radioactivity assay in presence of 20 uM ATP
MDA-MB-231 = assay: Cytotoxicity against human MDA-MB-231 cells; assay type: functional
[18] = molecular target: Homeodomain-interacting protein kinase 1 (Homo sapiens) (UniProt Q86Z02); assay: Inhibition of HIPK1 assessed as residual activity at 10 uM by radioactivity assay in presence of 20 uM ATP
HL-60(TB) = assay: Cytotoxicity against human HL-60(TB) cells; assay type: functional
[19] = Antiangiogenic activity in VEGF-stimulated HMEC1 assessed as reduction in total length of tube at 40 uM after 16 hrs by photographic analysis; assay type: functional, Homo sapiens, HMEC-1; set-up: scale not given: the % may be the effect or the level left
[20] = molecular target: Ribosomal protein S6 kinase alpha-5 (Homo sapiens) (UniProt O75582); assay: Inhibition of MSK1 assessed as residual activity at 10 uM by radioactivity assay in presence of 20 uM ATP
IGROV-1 = assay: Cytotoxicity against human IGROV1 cells; assay type: functional
NCI-H226 = assay: Cytotoxicity against human NCI-H226 cells; assay type: functional
[21] = Inhibition of AMPK assessed as residual activity at 10 uM by radioactivity assay in presence of 50 uM ATP
SR = assay: Cytotoxicity against human SR cells; assay type: functional
[22] = molecular target: MAP kinase-interacting serine/threonine-protein kinase 2 (Homo sapiens) (UniProt Q9HBH9); assay: Inhibition of MNK2alpha assessed as residual activity at 10 uM by radioactivity assay in presence of 50 uM ATP
[23] = molecular target: Serine/threonine-protein kinase Sgk1 (Homo sapiens) (UniProt O00141); assay: Inhibition of SGK1 assessed as residual activity at 10 uM by radioactivity assay in presence of 20 uM ATP
[24] = molecular target: Protein kinase C alpha type (Homo sapiens) (UniProt P17252); assay: Inhibition of PKCalpha assessed as residual activity at 10 uM by radioactivity assay in presence of 20 uM ATP
ACHN = assay: Cytotoxicity against human ACHN cells; assay type: functional
[25] = molecular target: Calcium/calmodulin-dependent protein kinase type 1 (Homo sapiens) (UniProt Q14012); assay: Inhibition of CAMK1 assessed as residual activity at 10 uM by radioactivity assay in presence of 50 uM ATP
TK-10 = assay: Cytotoxicity against human TK10 cells; assay type: functional
SK-OV-3 = assay: Cytotoxicity against human SKOV3 cells; assay type: functional
786-0 = assay: Cytotoxicity against human 786-0 cells; assay type: functional

Ephrin type-B receptor 4 (Homo sapiens), sequence (P54760 whole entry): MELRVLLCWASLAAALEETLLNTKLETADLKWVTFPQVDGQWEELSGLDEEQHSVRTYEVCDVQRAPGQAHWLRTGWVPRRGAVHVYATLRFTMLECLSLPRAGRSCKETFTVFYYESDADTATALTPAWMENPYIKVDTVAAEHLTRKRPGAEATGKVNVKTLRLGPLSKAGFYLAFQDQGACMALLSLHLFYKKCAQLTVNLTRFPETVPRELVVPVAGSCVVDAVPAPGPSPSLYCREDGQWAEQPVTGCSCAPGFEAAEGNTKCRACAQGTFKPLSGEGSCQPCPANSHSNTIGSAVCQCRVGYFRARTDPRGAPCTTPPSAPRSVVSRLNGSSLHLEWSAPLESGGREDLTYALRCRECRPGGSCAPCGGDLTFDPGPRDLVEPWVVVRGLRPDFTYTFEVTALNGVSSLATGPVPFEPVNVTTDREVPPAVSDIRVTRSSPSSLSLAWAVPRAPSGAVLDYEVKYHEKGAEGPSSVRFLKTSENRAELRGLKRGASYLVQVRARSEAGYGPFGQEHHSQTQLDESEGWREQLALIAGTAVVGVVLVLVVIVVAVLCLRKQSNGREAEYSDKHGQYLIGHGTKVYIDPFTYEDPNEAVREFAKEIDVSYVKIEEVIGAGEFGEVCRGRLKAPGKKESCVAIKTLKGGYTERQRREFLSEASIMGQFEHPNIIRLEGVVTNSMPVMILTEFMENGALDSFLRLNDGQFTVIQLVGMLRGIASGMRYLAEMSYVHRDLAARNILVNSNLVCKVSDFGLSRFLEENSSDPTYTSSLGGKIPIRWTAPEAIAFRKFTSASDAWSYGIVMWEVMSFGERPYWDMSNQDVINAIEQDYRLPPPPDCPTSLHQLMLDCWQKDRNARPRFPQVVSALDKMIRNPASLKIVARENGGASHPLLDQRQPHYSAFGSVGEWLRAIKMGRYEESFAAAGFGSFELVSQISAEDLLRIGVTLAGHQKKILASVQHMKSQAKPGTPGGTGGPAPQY
Ephrin type-B receptor 3 (Homo sapiens), sequence (P54753 whole entry): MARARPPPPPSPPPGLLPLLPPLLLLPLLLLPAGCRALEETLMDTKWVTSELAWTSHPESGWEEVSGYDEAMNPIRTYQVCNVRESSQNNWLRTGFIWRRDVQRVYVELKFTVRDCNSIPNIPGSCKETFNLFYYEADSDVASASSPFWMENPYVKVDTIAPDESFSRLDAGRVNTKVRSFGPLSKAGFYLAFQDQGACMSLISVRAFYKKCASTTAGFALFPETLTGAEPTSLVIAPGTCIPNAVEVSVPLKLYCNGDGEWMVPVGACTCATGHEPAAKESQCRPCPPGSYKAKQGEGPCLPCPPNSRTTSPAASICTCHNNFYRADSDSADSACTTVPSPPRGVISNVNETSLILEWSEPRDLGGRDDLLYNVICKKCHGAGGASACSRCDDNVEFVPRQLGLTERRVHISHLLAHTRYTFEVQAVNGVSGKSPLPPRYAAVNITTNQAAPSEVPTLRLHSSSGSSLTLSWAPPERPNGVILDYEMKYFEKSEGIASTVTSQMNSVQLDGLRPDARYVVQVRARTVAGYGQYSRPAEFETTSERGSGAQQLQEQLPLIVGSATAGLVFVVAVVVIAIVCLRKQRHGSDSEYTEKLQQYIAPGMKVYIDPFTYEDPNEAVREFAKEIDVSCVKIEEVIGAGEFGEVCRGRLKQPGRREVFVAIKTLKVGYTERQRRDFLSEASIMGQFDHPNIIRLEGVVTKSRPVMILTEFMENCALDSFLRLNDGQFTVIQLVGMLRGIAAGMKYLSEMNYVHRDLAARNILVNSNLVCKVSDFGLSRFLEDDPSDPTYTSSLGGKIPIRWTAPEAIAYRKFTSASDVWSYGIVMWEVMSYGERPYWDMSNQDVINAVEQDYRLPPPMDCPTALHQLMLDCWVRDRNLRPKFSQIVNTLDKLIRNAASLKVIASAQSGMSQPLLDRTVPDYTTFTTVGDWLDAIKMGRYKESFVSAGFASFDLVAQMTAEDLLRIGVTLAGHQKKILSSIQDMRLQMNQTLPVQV
Ribosomal protein S6 kinase alpha-5 (Homo sapiens), sequence (O75582 whole entry, looked up): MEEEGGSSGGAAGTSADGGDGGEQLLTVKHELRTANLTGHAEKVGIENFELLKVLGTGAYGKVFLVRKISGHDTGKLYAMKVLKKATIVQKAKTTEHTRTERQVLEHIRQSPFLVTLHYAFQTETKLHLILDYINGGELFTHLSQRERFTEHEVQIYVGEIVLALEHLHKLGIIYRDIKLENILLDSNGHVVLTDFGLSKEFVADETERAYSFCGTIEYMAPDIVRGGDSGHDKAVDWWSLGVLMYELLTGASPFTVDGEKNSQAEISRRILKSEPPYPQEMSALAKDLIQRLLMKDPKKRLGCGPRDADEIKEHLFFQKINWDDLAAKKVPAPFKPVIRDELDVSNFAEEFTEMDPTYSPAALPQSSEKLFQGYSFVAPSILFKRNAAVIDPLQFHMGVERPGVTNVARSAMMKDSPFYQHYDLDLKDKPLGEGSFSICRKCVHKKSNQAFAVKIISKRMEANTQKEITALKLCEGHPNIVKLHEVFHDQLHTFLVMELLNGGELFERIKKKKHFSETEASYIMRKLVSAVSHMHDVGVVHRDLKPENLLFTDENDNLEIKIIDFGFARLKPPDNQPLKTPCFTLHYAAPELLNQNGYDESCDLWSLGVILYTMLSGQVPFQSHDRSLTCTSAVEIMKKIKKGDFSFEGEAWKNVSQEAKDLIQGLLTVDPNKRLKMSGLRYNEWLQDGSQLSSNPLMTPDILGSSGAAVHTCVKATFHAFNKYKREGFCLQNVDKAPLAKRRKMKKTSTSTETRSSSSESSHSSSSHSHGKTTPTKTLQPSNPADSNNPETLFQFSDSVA
Homeodomain-interacting protein kinase 1 (Homo sapiens), sequence (Q86Z02 whole entry, looked up): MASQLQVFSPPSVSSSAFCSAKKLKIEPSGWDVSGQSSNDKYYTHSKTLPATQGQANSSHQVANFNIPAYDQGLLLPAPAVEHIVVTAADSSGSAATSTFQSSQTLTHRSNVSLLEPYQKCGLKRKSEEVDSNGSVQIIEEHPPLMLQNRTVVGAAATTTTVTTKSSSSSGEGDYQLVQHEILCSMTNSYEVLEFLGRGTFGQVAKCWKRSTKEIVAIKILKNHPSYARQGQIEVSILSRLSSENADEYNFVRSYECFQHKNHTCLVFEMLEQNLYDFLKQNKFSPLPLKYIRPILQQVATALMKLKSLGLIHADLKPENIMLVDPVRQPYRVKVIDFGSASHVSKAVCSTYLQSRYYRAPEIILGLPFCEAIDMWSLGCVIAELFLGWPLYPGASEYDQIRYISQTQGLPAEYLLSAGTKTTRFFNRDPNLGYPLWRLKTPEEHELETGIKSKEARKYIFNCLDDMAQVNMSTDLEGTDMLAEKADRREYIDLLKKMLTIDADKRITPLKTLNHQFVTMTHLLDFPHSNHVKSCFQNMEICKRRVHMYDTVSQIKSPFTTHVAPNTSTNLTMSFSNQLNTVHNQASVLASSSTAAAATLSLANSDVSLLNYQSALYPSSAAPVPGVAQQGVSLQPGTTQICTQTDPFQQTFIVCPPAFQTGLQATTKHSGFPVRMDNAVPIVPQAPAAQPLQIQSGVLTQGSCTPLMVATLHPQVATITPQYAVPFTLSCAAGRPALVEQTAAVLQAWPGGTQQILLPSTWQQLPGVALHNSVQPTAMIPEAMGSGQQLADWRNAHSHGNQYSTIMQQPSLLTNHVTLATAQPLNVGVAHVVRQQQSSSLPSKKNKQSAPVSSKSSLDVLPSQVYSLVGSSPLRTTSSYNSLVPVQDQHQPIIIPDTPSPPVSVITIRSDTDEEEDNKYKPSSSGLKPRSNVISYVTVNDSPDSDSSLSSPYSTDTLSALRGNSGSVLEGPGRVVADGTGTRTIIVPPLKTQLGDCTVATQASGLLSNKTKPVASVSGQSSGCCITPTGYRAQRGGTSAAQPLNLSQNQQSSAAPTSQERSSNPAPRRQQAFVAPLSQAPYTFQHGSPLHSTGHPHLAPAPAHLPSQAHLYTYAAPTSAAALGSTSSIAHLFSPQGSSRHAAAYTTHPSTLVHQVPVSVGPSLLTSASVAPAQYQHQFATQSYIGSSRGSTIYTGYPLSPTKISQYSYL
Serine/threonine-protein kinase PAK 4 (Homo sapiens), sequence (O96013 whole entry, looked up): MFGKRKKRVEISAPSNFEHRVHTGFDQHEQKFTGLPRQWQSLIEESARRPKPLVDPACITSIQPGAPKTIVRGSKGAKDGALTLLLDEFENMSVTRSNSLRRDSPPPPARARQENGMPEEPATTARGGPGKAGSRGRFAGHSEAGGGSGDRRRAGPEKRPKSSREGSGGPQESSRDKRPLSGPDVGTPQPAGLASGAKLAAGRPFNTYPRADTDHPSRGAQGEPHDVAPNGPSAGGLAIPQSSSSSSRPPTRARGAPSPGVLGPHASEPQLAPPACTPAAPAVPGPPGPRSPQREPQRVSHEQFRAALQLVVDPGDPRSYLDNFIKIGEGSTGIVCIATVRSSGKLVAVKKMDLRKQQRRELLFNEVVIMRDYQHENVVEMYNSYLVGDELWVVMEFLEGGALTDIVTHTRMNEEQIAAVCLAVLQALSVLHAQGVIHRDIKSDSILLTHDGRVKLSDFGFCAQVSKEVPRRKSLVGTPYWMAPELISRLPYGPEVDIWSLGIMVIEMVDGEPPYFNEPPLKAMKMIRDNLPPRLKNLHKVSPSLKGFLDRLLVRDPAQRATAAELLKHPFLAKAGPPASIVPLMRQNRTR
Serine/threonine-protein kinase pim-1 (Homo sapiens), sequence (P11309 whole entry, looked up): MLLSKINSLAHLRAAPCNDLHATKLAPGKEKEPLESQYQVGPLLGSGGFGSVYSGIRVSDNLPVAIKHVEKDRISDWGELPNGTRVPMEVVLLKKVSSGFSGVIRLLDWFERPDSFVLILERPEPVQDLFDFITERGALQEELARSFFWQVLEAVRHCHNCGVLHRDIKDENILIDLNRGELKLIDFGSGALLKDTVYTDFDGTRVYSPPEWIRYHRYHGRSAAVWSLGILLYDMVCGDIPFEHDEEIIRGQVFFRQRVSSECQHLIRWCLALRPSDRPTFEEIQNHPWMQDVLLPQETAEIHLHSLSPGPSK

**Q.** For `Nc1n[nH]c(N)c1/N=N/c1ccc(O)cc1`, which Activity [1] is on record?
**A.** 60%

**Q.** What about the GI50 (UO-31) of the same compound?
**A.** 13.7 µM

**Q.** What about the GI50 (SF-539) of the same compound?
**A.** 13.2 µM

**Q.** And the Activity [2]?
**A.** 45%

**Q.** And the Activity [3]?
**A.** 106%

**Q.** What about the Activity [4] of the same compound?
**A.** 93%

**Q.** What about the Activity [5] of the same compound?
**A.** 42%

**Q.** What about the GI50 (CCRF-CEM) of the same compound?
**A.** 20 µM

**Q.** What about the Activity [6] of the same compound?
**A.** 39%

**Q.** And the Activity [7]?
**A.** 79%

**Q.** And the Activity [8]?
**A.** 94%

**Q.** And the Activity [9]?
**A.** 99%

**Q.** And the Activity [10]?
**A.** 63%

**Q.** What about the Activity [11] of the same compound?
**A.** 40%

**Q.** What about the Activity (HUVEC) of the same compound?
**A.** Non-toxic

**Q.** And the Activity [12]?
**A.** 74%

**Q.** What about the GI50 (UACC-257) of the same compound?
**A.** 24.4 µM

**Q.** And the GI50 (MDA-MB-435)?
**A.** 17.1 µM

**Q.** And the Activity [13]?
**A.** 98%

**Q.** What about the Activity [14] of the same compound?
**A.** 98%

**Q.** What about the GI50 (HCT-15) of the same compound?
**A.** 24.2 µM

**Q.** And the Activity [15]?
**A.** 93%

**Q.** What about the GI50 (NCI-H460) of the same compound?
**A.** 25.1 µM

**Q.** What about the Activity (MCF7) of the same compound?
**A.** Active

**Q.** What about the Activity [16] of the same compound?
**A.** 31%

**Q.** What about the GI50 (SF-268) of the same compound?
**A.** 20.6 µM

**Q.** What about the Activity [17] of the same compound?
**A.** 72%

**Q.** What about the GI50 (MDA-MB-231) of the same compound?
**A.** 16.7 µM

**Q.** What about the Activity [18] of the same compound?
**A.** 106%

**Q.** What about the GI50 (HL-60(TB)) of the same compound?
**A.** 6.4 µM

**Q.** And the Activity [19]?
**A.** 30%

**Q.** What about the Activity [20] of the same compound?
**A.** 88%

**Q.** And the GI50 (IGROV-1)?
**A.** 20.6 µM

**Q.** What about the GI50 (NCI-H226) of the same compound?
**A.** 17.7 µM

**Q.** And the Activity [21]?
**A.** 82%

**Q.** And the GI50 (SR)?
**A.** 10.3 µM

**Q.** What about the Activity [22] of the same compound?
**A.** 39%

**Q.** What about the Activity [23] of the same compound?
**A.** 94%

**Q.** What about the Activity [24] of the same compound?
**A.** 83%

**Q.** And the GI50 (ACHN)?
**A.** 15.6 µM

**Q.** And the Activity [25]?
**A.** 81%

**Q.** What about the GI50 (TK-10) of the same compound?
**A.** 25.6 µM

**Q.** And the GI50 (SK-OV-3)?
**A.** 49.2 µM

**Q.** What about the GI50 (786-0) of the same compound?
**A.** 26.2 µM
